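Results reflect a 48-hour exposure of cells in 96-well plates to compound at five concentrations. TGI: total growth inhibition.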
Legend:
Assay in all cases: NCI-60 cell line screen, 48 h
CAKI-1 renal = test system: CAKI-1 renal
KM12 colon = test system: KM12 colon
A498 renal = test system: A498 renal
RPMI-8226 leukemia = test system: RPMI-8226 leukemia
SF-539 CNS = test system: SF-539 CNS
SK-MEL-28 melanoma = test system: SK-MEL-28 melanoma
UO-31 renal = test system: UO-31 renal
TK-10 renal = test system: TK-10 renal
IGROV1 ovarian = test system: IGROV1 ovarian
MDA-N = test system: MDA-N
SNB-75 CNS = test system: SNB-75 CNS
OVCAR-4 ovarian = test system: OVCAR-4 ovarian
SR leukemia = test system: SR leukemia
MDA-MB-231 breast = test system: MDA-MB-231 breast
NCI-H23 lung = test system: NCI-H23 lung
U251 CNS = test system: U251 CNS
SK-OV-3 ovarian = test system: SK-OV-3 ovarian
A549 NSCLC = test system: A549 NSCLC
HCC-2998 colon = test system: HCC-2998 colon

Row | SMILES | TGI (CAKI-1 renal) [µM] | TGI (KM12 colon) [µM] | TGI (A498 renal) [µM] | TGI (RPMI-8226 leukemia) [µM] | TGI (SF-539 CNS) [µM] | TGI (SK-MEL-28 melanoma) [µM] | TGI (UO-31 renal) [µM] | TGI (TK-10 renal) [µM] | TGI (IGROV1 ovarian) [µM] | TGI (MDA-N) [µM] | TGI (SNB-75 CNS) [µM] | TGI (OVCAR-4 ovarian) [µM] | TGI (SR leukemia) [µM] | TGI (MDA-MB-231 breast) [µM] | TGI (NCI-H23 lung) [µM] | TGI (U251 CNS) [µM] | TGI (SK-OV-3 ovarian) [µM] | TGI (A549 NSCLC) [µM] | TGI (HCC-2998 colon) [µM]
1 | CC1(C)C(=O)C2(C#N)CCC1C2 (centres undefined) | > 100 | > 100 | > 100 | > 100 | > 100 | > 100 | > 100 | > 100 | > 100 | > 100 | > 100 | > 100 | > 100 | > 100 | > 100 | > 100 | > 100 | > 100 | > 100
2 | O=c1cc(-c2ccccc2Cl)[nH]c2cc3c(cc12)OCO3 | 39.9 | > 31.6 | 4.16 | 0.565 | 0.458 | > 63.3 | > 20 | > 44.7 | > 37.5 | 0.0383 | > 100 | > 9.75 | > 100 | 0.982 | > 11 | 1.25 | 11.4 | > 16.7 | 0.496
3 | N#CC(c1ccccc1)(c1ccccc1)[C@@H](c1ccccc1)[C@H](Cc1ccccc1)NS(=O)(=O)c1ccccc1 | > 100 | > 100 | > 100 | > 100 | > 100 | > 100 | > 100 | > 100 | > 100 | > 100 | > 100 | > 100 | > 100 | > 100 | > 100 | > 100 | > 100 | > 100 | > 100
4 | COc1ccc(C2C(Cl)C(=O)N2NC(=O)c2ccc(N)cc2)cc1OC (centres undefined) | 6.84 | 5.64 | 31.5 | 9.04 | 21.8 | 17.6 | 25.7 | 30.7 | 3.27 | 23.5 | 33.3 | 19 | 4.85 | 39.7 | 18.8 | 7.28 | 33 | 34.1 | 19.9
5 | Cc1cc(-c2nc3cc(F)ccc3s2)ccc1NC(=O)C(C)N (centres undefined) | 8.64 | 9.36 | 7.41 | 16.9 | 14.2 | 11 | 7.05 | 2.93 | 4.76 | 8.13 | 10.6 | 8.18 | 5.24 | 7.7 | 6.24 | 9.42 | 8.84 | 7.72 | 3.57
6 | Oc1[nH]c2ccccc2c1N=NC(=S)N1CCCC1 | 10.8 | > 49.5 | 19.2 | 9.64 | 10.7 | > 100 | 11.3 | 36.2 | 15 | 38.8 | 14.1 | 32.2 | 3.65 | 55.7 | 34.5 | 22.6 | 21.6 | 13.6 | 23.6
7 | COc1nc2c(c(=O)n1C)NC(C(O)C(O)CO)C=N2 (centres undefined) | > 10 | > 10 | > 10 | > 10 | > 10 | > 10 | > 10 | > 10 | > 10 | > 10 | > 10 | > 10 | > 10 | > 10 | > 10 | > 10 | > 10 | > 10 | > 10
8 | FC(F)(F)C1(C(F)(F)F)C2CCC3(CC(F)(F)C(F)(F)S3)C1C2 (centres undefined) | > 100 | > 100 | > 100 | 58.8 | > 100 | > 100 | 68.3 | > 100 | > 100 | > 100 | > 100 | > 100 | 44.1 | > 100 | > 100 | > 100 | > 100 | > 100 | > 100
9 | N#CC(c1ccccc1)N(CCc1ccccc1)C(=O)Oc1ccccc1 (centres undefined) | > 100 | > 100 | > 100 | > 100 | > 100 | > 100 | > 100 | > 100 | > 100 | > 100 | 74.7 | > 100 | > 100 | > 100 | > 100 | > 100 | > 100 | > 100 | > 100
10 | CC(=O)O/C=C\OC1CCCC1 | > 100 | > 100 | > 100 | > 100 | > 100 | > 100 | > 100 | > 100 | > 100 | > 100 | > 100 | > 100 | > 100 | > 100 | > 100 | > 100 | > 100 | > 100 | > 100
11 | COc1ccc2c(c1)c1c3c(ccc4ncn2c43)N(CCN(C)C)CCN=1 | 9.13 | 1.7 | 2.77 | 2.48 | 1.1 | 2.45 | 1.74 | 5.73 | 4.37 | 1.59 | 2.26 | 1.16 | 0.209 | 1.76 | 3.59 | 1.41 | 4.04 | 2.04 | 1.35

Source: PubChem BioAssay (NCI)
